Consider 19 molecules from ChEMBL document CHEMBL6071142, “Isoalantolactone/hydroxamic acid hybrids as potent dual STAT3/HDAC inhibitors and self-assembled nanoparticles for cancer therapy” (Eur J Med Chem, 2024).

Broadly, the IC50 is the point on the concentration scale where inhibition reaches its midpoint. What is called Kd is a measure of binding affinity in units of concentration.

One assay concerns the target Histone deacetylase 1 (Homo sapiens, UniProt Q13547). In words: Inhibition of recombinant human HDAC1 using Boc-Lys (acetyl)-AMC as substrate preincubated with compound for 1 hr followed by substrate addition and measured after 30 mins by microplate reader assay.
The target in another assay is Histone deacetylase 2 (Homo sapiens, UniProt Q92769). In words: Inhibition of recombinant human HDAC2 using Boc-Lys (acetyl)-AMC as substrate preincubated with compound for 1 hr followed by substrate addition and measured after 30 mins by microplate reader assay.
In a further assay the target is Histone deacetylase 3 (Homo sapiens, UniProt O15379). In words: Inhibition of recombinant human HDAC3 using Boc-Lys (acetyl)-AMC as substrate preincubated with compound for 1 hr followed by substrate addition and measured after 30 mins by microplate reader assay.
Assay [1] concerns the target T1, Protein deacetylase HDAC6 (Homo sapiens, UniProt Q9UBN7).
T1 sequence (Q9UBN7 whole entry): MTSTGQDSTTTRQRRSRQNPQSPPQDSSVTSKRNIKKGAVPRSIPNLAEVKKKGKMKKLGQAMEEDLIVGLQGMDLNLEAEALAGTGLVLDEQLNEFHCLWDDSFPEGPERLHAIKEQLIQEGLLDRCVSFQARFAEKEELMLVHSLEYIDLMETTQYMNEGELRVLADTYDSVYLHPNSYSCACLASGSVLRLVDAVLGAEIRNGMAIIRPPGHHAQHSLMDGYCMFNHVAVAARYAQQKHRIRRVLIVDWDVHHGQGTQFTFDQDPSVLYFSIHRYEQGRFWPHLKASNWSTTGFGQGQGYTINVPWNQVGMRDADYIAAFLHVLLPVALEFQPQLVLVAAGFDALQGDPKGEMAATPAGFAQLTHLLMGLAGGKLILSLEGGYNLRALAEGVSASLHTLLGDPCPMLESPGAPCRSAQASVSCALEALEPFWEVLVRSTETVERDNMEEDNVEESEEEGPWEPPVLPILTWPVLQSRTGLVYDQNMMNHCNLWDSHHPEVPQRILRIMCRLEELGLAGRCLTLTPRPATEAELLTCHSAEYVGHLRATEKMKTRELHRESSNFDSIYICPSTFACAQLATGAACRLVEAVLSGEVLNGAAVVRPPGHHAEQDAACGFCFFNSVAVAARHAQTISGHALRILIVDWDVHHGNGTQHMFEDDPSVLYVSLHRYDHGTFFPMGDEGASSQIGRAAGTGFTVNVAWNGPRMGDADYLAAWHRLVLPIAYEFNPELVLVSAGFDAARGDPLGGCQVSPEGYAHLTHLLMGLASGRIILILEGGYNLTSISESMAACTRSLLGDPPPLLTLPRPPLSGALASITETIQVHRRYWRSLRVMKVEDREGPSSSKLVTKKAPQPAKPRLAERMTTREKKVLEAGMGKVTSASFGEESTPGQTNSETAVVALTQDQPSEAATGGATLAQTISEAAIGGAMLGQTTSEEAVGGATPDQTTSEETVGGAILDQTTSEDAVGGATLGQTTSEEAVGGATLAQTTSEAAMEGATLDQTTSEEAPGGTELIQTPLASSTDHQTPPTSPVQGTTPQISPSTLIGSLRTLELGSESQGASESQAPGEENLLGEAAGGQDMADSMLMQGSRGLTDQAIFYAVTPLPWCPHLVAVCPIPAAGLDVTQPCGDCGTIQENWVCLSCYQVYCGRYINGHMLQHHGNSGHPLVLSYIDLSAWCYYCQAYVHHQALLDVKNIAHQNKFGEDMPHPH
In words: Inhibition of recombinant human HDAC6 using Boc-Lys (acetyl)-AMC as substrate preincubated with compound for 1 hr followed by substrate addition and measured after 30 mins by microplate reader assay.

For assay [2], the target named is Signal transducer and activator of transcription 3 (Homo sapiens, UniProt P40763). In words: Binding affinity to STAT3 (unknown origin) assessed as dissociation constant by SPR assay.
The next assay deals with A549. In words: cells. The assay is classed as functional, cell-based. The settings on record: Homo sapiens, A549, 72 h.

Chain of Histone deacetylase 2 (Q92769 whole entry): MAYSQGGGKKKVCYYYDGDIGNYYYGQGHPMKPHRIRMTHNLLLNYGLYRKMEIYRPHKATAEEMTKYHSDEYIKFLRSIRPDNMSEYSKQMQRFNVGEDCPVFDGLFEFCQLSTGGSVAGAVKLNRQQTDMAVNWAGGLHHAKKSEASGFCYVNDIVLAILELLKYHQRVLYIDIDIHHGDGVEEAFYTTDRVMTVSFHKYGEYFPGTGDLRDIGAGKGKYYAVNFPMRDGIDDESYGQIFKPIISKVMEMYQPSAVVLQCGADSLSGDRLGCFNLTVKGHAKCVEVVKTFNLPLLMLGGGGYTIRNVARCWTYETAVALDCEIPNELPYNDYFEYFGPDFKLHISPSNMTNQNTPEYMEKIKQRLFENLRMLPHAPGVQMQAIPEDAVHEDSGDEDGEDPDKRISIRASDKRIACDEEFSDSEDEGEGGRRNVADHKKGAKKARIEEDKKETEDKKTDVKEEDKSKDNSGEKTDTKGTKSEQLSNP
Chain of Histone deacetylase 3 (O15379 whole entry): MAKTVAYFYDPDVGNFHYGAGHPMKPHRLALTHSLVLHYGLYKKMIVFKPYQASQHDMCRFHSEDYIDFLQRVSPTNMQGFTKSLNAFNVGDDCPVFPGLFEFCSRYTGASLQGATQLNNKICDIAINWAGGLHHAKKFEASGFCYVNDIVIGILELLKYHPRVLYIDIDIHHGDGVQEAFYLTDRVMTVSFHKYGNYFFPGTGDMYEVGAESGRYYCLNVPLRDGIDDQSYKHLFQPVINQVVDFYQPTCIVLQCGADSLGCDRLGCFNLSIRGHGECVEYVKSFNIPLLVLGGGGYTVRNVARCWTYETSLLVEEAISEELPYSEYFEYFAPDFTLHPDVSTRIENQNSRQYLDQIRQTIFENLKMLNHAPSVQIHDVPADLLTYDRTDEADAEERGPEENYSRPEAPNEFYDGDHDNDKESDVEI
Chain of Signal transducer and activator of transcription 3 (P40763 whole entry): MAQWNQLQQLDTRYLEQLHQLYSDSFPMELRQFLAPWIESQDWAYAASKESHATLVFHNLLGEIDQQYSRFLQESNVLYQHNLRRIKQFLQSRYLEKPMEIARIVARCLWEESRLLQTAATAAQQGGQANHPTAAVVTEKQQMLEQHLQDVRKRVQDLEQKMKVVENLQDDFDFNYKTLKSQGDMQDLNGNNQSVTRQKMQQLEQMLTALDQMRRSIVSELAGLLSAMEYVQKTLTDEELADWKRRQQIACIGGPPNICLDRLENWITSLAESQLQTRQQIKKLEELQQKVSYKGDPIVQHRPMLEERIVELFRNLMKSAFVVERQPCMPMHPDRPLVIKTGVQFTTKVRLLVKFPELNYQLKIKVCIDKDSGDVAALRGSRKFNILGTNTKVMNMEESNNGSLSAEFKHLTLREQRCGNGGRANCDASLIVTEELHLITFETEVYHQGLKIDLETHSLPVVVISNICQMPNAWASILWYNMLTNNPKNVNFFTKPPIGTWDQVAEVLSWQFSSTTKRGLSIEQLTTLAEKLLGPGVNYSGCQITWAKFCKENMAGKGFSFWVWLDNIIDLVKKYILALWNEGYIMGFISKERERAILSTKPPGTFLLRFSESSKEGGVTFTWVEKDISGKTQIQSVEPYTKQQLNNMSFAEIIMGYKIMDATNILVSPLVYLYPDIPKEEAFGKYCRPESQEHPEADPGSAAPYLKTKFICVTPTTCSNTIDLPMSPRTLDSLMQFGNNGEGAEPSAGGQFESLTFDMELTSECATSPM
Chain of Histone deacetylase 1 (Q13547 whole entry): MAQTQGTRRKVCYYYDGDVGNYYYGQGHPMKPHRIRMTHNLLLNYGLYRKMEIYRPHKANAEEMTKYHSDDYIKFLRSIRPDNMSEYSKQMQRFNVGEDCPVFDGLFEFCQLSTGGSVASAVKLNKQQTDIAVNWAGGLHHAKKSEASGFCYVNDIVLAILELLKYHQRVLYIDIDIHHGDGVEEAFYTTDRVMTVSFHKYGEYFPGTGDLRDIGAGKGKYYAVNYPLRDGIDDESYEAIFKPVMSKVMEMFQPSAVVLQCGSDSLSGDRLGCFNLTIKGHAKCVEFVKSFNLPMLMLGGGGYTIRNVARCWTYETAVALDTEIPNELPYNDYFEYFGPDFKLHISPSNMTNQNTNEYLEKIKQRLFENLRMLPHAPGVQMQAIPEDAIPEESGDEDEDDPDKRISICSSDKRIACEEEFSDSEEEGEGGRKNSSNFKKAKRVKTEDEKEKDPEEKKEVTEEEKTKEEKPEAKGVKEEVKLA
Description for A549: Antiproliferative activity against human A549 cells assessed as inhibition of cell proliferation incubated for 72 hrs by CCK-8 assay

Turning to `C=C1C(=O)O[C@@H]2C[C@@]3(C)CC[C@@H](OC(=O)[C@@H](Cc4ccccc4)NC(=O)c4ccc(C(=O)Nc5ccccc5N)cc4)C(=C)[C@@H]3C[C@H]12`, the IC50 was 622 nM on Histone deacetylase 1; more than 1000 nM at Histone deacetylase 2; more than 1000 nM at Histone deacetylase 3; more than 1000 nM in assay [1]; 7470 nM with A549. Also, the Kd in assay [2] is 4760 nM.
As for `C=C1C(=O)O[C@@H]2C[C@@]3(C)CC[C@@H](OC(=O)[C@@H](C)NC(=O)c4cccc(/C=C/C(=O)NO)c4)C(=C)[C@@H]3C[C@H]12`, the IC50 at Histone deacetylase 1 was determined as 197 nM; at Histone deacetylase 2, 313 nM; at Histone deacetylase 3 it was 103 nM; in assay [1], 86.9 nM; in the assay with A549, 4330 nM. Besides, the Kd in assay [2] is 13500 nM.
In the case of `C=C1C(=O)O[C@@H]2C[C@@]3(C)CC[C@@H](OC(=O)[C@H](C)NC(=O)c4ccc(C(=O)NO)cc4)C(=C)[C@@H]3C[C@H]12`, the IC50 on Histone deacetylase 1 was 568 nM; at Histone deacetylase 2 it was 844 nM; at Histone deacetylase 3, 441 nM; in assay [1] it was 267 nM; with A549, more than 10000 nM. In addition, the Kd in assay [2] was more than 50000 nM.
With `C=C1C(=O)O[C@@H]2C[C@@]3(C)CC[C@@H](OC(=O)[C@H](NC(=O)c4ccc(C(=O)Nc5ccccc5N)cc4)C(C)C)C(=C)[C@@H]3C[C@H]12`, the IC50 is more than 1000 nM at Histone deacetylase 1; more than 1000 nM on Histone deacetylase 2; more than 1000 nM at Histone deacetylase 3; more than 1000 nM in assay [1]; more than 10000 nM in the assay on A549. For the same molecule, the Kd in assay [2] was more than 50000 nM.
On to `C=C1C(=O)O[C@@H]2C[C@@]3(C)CC[C@@H](OC(=O)[C@H](CC)NC(=O)c4ccc(C(=O)Nc5ccccc5N)cc4)C(=C)[C@@H]3C[C@H]12`, for which the IC50 was more than 1000 nM at Histone deacetylase 1; more than 1000 nM at Histone deacetylase 2; more than 1000 nM at Histone deacetylase 3; more than 1000 nM in assay [1]; more than 10000 nM in the assay with A549. In addition, the Kd in assay [2] came out at 22600 nM.
As for `C=C1C(=O)O[C@@H]2C[C@@]3(C)CC[C@@H](OC(=O)[C@@H](C)NC(=O)c4ccc(C(=O)Nc5ccccc5N)cc4)C(=C)[C@@H]3C[C@H]12`, the IC50 at Histone deacetylase 1 was 122 nM; on Histone deacetylase 2, 507 nM; at Histone deacetylase 3 it was 473 nM; in assay [1], more than 1000 nM; in the assay on A549, 2240 nM. In assay [2], the Kd amounted to 4960 nM.
Turning to `C=C1C(=O)O[C@@H]2C[C@@]3(C)CC[C@@H](OC(=O)[C@@H](CC(C)C)NC(=O)c4ccc(C(=O)Nc5ccccc5N)cc4)C(=C)[C@@H]3C[C@H]12`, the IC50 on Histone deacetylase 1 was 453 nM; on Histone deacetylase 2, more than 1000 nM; on Histone deacetylase 3, more than 1000 nM; in assay [1] it was more than 1000 nM; with A549 it was 5610 nM. Further, the Kd in assay [2] amounted to 6880 nM.
Take `C=C1C(=O)O[C@@H]2C[C@@]3(C)CC[C@@H](OC(=O)[C@H](C)NC(=O)c4ccc(C(=O)Nc5ccccc5N)cc4)C(=C)[C@@H]3C[C@H]12`: the IC50 at Histone deacetylase 1 was more than 1000 nM; on Histone deacetylase 2 it was more than 1000 nM; on Histone deacetylase 3, more than 1000 nM; in assay [1], more than 1000 nM; with A549, 3340 nM. In assay [2], the Kd is 8960 nM.
Take `C=C1C(=O)O[C@@H]2C[C@@]3(C)CC[C@@H](OC(=O)[C@H](C)NC(=O)c4cccc(/C=C/C(=O)NO)c4)C(=C)[C@@H]3C[C@H]12`: the IC50 at Histone deacetylase 1 worked out at 206 nM; at Histone deacetylase 2, 404 nM; at Histone deacetylase 3, 113 nM; in assay [1], 62.4 nM; in the assay on A549 it was 4530 nM. Also, the Kd in assay [2] amounted to 12300 nM.
Regarding `C=C1C(=O)O[C@@H]2C[C@@]3(C)CC[C@@H](OC(=O)[C@@H](CC)NC(=O)c4ccc(C(=O)Nc5ccccc5N)cc4)C(=C)[C@@H]3C[C@H]12`, the IC50 at Histone deacetylase 1 was 6510 nM; on Histone deacetylase 2, more than 1000 nM; at Histone deacetylase 3 it was more than 1000 nM; in assay [1] it was more than 1000 nM; in the assay with A549, 6670 nM. In addition, the Kd in assay [2] was found to be 20700 nM.
As for `C=C1C(=O)O[C@@H]2C[C@@]3(C)CC[C@@H](OC(=O)CNC(=O)c4ccc(C(=O)NO)cc4)C(=C)[C@@H]3C[C@H]12`, the IC50 at Histone deacetylase 1 came out at 202 nM; on Histone deacetylase 2, 189 nM; at Histone deacetylase 3 it was 107 nM; in assay [1], 87.5 nM; in the assay with A549, 2560 nM. Also, the Kd in assay [2] is more than 50000 nM.
As to `C=C1C(=O)O[C@@H]2C[C@@]3(C)CC[C@@H](OC(=O)[C@@H](NC(=O)c4ccc(C(=O)Nc5ccccc5N)cc4)C(C)C)C(=C)[C@@H]3C[C@H]12`, the IC50 is more than 1000 nM at Histone deacetylase 1; more than 1000 nM at Histone deacetylase 2; more than 1000 nM at Histone deacetylase 3; more than 1000 nM in assay [1]; more than 10000 nM with A549. Further, the Kd in assay [2] was found to be 17400 nM.
Turning to `C=C1C(=O)O[C@@H]2C[C@@]3(C)CC[C@@H](OC(=O)[C@@H](C)NC(=O)c4ccc(/C=C/C(=O)NO)cc4)C(=C)[C@@H]3C[C@H]12`, the IC50 was 193 nM on Histone deacetylase 1; 342 nM on Histone deacetylase 2; 272 nM at Histone deacetylase 3; 64 nM in assay [1]; 4530 nM in the assay on A549. Moreover, the Kd in assay [2] was determined as 3890 nM.
For `C=C1C(=O)O[C@@H]2C[C@@]3(C)CC[C@@H](OC(=O)[C@H](CC(C)C)NC(=O)c4ccc(C(=O)Nc5ccccc5N)cc4)C(=C)[C@@H]3C[C@H]12`, the IC50 is more than 1000 nM at Histone deacetylase 1; more than 1000 nM on Histone deacetylase 2; more than 1000 nM on Histone deacetylase 3; more than 1000 nM in assay [1]; more than 10000 nM in the assay with A549. The Kd in assay [2] is more than 50000 nM.
Take `C=C1C(=O)O[C@@H]2C[C@@]3(C)CC[C@@H](OC(=O)[C@@H](C)NC(=O)c4ccc(C(=O)NO)cc4)C(=C)[C@@H]3C[C@H]12`: the IC50 on Histone deacetylase 1 was 748 nM; on Histone deacetylase 2, more than 1000 nM; at Histone deacetylase 3, more than 1000 nM; in assay [1], 162 nM; with A549 it was more than 10000 nM. Moreover, the Kd in assay [2] came out at 20100 nM.
Consider `Nc1ccc(F)cc1NC(=O)c1ccc(CNC(=O)/C=C/c2cccnc2)cc1`, for which the values for the IC50 at Histone deacetylase 2 and with A549 were 212 nM and 6400 nM, respectively. Besides, the Kd in assay [2] is more than 50000 nM.
Take `C=C1C(=O)O[C@@H]2C[C@@]3(C)CC[C@@H](OC(=O)CNC(=O)c4cccc(/C=C/C(=O)NO)c4)C(=C)[C@@H]3C[C@H]12`: the IC50 was 86.5 nM on Histone deacetylase 1; 92.7 nM on Histone deacetylase 2; 63.1 nM on Histone deacetylase 3; 45.3 nM in assay [1]; 1870 nM in the assay with A549.
For the molecule `C=C1C(=O)O[C@@H]2C[C@@]3(C)CC[C@@H](OC(=O)CNC(=O)c4ccc(C(=O)Nc5ccccc5N)cc4)C(=C)[C@@H]3C[C@H]12`, the IC50 at Histone deacetylase 1 is more than 1000 nM; at Histone deacetylase 2 it was more than 1000 nM; on Histone deacetylase 3 it was more than 1000 nM; in assay [1], more than 1000 nM; in the assay on A549, more than 10000 nM. Further, the Kd in assay [2] turned out to be 39300 nM.
As for `C=C1C(=O)O[C@@H]2C[C@@]3(C)CC[C@@H](OC(=O)[C@H](Cc4ccccc4)NC(=O)c4ccc(C(=O)Nc5ccccc5N)cc4)C(=C)[C@@H]3C[C@H]12`, the IC50 is more than 1000 nM on Histone deacetylase 1; more than 1000 nM at Histone deacetylase 2; more than 1000 nM at Histone deacetylase 3; more than 1000 nM in assay [1]; more than 10000 nM in the assay with A549. Besides, the Kd in assay [2] is more than 50000 nM.
